Patent US20030153512A1 (priority 2000, published 2003)
In brackets after ≈: the same amount, converted by molar mass.

Columns and labels:
[1] = tested on: granulocytes (PMN) from human blood; assay: Inhibition of the TPA-stimulated "oxygen burst" of granulocytes (chemiluminescence); format: cell-based; details: 100,000 granulocytes, TPA 100 nM, luminol and/or lucigenin, CL integral over one hour
Description: These studies were carried out by means of the inhibition of the “oxygen burst” of granulocytes (PMN) from human blood according to Hergenhahn et al. (1991) J. Cancer Res. Clin. Oncol. 117, 385-395, and Bouvier, Hergenhahn et al. (1993) Carcinogenesis 14, 1573-8. The granulocyte fraction from heparinized blood is enriched by agglutination of the erythrocytes with 2.5% dextran in PBS (30 min. at room temperature), freed from residual erythrocytes by lysis and used after washing with PBS in the test. In a total volume of 1 ml, 100,000 granulocytes each are admixed with luminol and/or lucigenin and heated to 37° C. in the chemiluminescence (CL) measuring device Biolumat LB 953 (EG&G Berthold, Wildbad); the cells are then stimulated with TPA at a final concentration of 100 nM. The CL curves are tracked for one hour; the integral underneath the curve is used as a standard for chemiluminescence.
When inhibitory substances are used, a concentration-dependent inhibitory effect results which manifests itself as a late rise, reduced amplitude of the maximum and partially as an early drop of the peak.

[2] = tested on: Epstein-Barr virus; assay: Inhibition of EBV induction (reactivation) in Raji-DR-LUC cells, luciferase activity; format: cell-based; details: 50,000 Raji-DR cells, 10 nM TPA, 72 hours
Description: The current studies were carried out with Raji-DR-LUC cells.
For this purpose, 50,000 Raji-DR cells were treated with 10 nM TPA minus/plus inhibitor (various concentrations) in a volume of 100 μl in a CO2 incubator for 72 hours. Following washing with PBS, the cells are lyzed; the luciferase activity is determined in luciferase buffer (20 mM tricins, 8 mM MgSO4, 0.1 mM EDTA, 30 mM DTE, pH 7.8) with luciferin/CoA ATP as a substrate in an always equal amount of cell lyzate. The induced luciferase activity per μg protein is determined in comparison with a calibration curve having an authentic luciferase. Inhibiting agents of EBV induction result in an induction of luciferase reduced as compared with the TPA control.

[3] = tested on: Raji cells; assay: Uptake in Raji cells by fluorescence microscopy; format: cell-based
Description: These studies were carried out by means of fluorescence microscopy, since curcumin and its two derivatives show fluorescence. […] Aliquots of the cells in medium were placed by pipetting onto poly-L-lysin-coated slides (to adhere the cells); the cells were covered with a cover glass after 30 minutes and stimulated by an appropriate filter using U.V. light.

[4] = Water solubility of saturated solutions in argon-saturated water, content by HPLC; format: physicochemical; details: saturated solution at room temperature in argon-saturated water, HPLC UV 420 nm
Description: HPLC conditions: column lichrospher-100-RP18-5 μ, 125×4 mm Running agent/gradient/flow Acetonitrile/acetic acid 0.2 and/or 2%, 1 ml/min Detection: UV 420 nm
The relevant straight calibration line was respectively determined with the individual compounds. […] The content of 20 μl each of the saturated solutions was determined by means of HPLC.

[5] = tested on: cell cultures; details: described in the literature; cited from earlier work
[6] = Raji cells, 3 hours, 15 μM, image analysis

Molecule | antioxidative effect, rank order in series [1] | EBV inhibitory effect, rank order in series [2] | fluorescence of cells (cell-associated compound) [3, 6] | water solubility [4] [µg/mL] | factor by which cell fluorescence was reduced (versus curcumin) [3, 6] | concentration in the medium at which chemopreventive effects occurred [5] | time of maximum uptake in Raji cells ([3]; preliminary tests) [h] | solubility ([4]; thermodynamic from solid) [µg/mL]
8,8′-bis-(B-D-glucopyranosyl)-curcumin [Curcumin diglucoside] | curcumin >>curcumin monoglucoside curcumin diglucoside | curcumin>curcumin monoglucoside>curcumin diglucoside | just visible | > 10700 | – | – | – | –
8-(β-D-glucopyranosyl)curcumin [Curcumin monoglucoside] | curcumin >>curcumin monoglucoside curcumin diglucoside | curcumin>curcumin monoglucoside>curcumin diglucoside | – | 13.2 ± 0.9 | 10-100 | – | – | –
COc1cc(C=CC(=O)CC(=O)C=Cc2ccc(O)c(OC)c2)ccc1O [Curcumin, 1,7-bis(4-hydroxy-3-methoxyphenyl)-1,6-heptadiene-3,5-dione, reference compound] | curcumin >>curcumin monoglucoside curcumin diglucoside | curcumin>curcumin monoglucoside>curcumin diglucoside | very bright fluorescence | – | – | at least 10 μM | 2 to 3 | 4 (≈ 10.9 µM)
